Test [1] deals with T1, kinase protein levels in MCF-7 cells (Homo sapiens, UniProt A0A0U1RRE5).
T1 construct: endogenous in cells; host or cells: MCF-7
T1 sequence (A0A0U1RRE5 1-68): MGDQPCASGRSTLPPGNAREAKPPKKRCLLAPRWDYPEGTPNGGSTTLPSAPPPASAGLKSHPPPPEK
Put plainly: TMT-labeled quantitative proteomics. The following applies: protein NBDY; MCF7; 1 µM; set2. In kind it is cell-based.

Another test concerns the target T2, ITK^HiBiT (Homo sapiens, UniProt Q08881).
T2 construct: HiBiT-ITK construct was cloned by PCR amplification of vector containing full-length; expressed in transfected cells
T2 sequence (Q08881 1-620): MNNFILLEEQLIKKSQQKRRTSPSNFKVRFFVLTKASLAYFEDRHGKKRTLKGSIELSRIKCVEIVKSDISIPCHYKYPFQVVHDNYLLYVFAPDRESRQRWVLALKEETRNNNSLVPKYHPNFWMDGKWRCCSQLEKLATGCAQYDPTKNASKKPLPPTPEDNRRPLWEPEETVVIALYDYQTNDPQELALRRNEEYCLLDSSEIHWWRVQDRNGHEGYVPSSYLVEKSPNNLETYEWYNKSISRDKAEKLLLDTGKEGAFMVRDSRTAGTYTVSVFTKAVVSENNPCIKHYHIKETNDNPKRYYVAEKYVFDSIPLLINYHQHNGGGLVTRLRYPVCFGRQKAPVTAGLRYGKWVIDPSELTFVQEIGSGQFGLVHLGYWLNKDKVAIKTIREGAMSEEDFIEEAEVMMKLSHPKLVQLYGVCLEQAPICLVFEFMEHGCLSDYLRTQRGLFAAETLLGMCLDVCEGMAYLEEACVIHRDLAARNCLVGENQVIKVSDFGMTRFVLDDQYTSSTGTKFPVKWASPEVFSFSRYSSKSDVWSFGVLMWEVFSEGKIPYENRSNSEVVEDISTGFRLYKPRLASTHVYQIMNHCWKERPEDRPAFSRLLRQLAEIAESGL
Put plainly: HiBiT assay, Jurkat cells expressing ITK^HiBiT. It is filed as cell-based. The settings on record: 6 h. The procedure:
Cell culture. Human MV4-11 ([…]) and human Jurkat ([…]) cells were cultured in RPMI- […]
1640 medium whereas human HEK293 ([…]) cells were cultured in DMEM medium at 37 °C in 5% CO2. Both media were supplemented with 10% FBS and 1% penicillin/streptomycin.
Cloning. HiBiT-ITK construct was cloned by PCR amplification of vector containing full-length
ITK. The PCR product was inserted into pRRL-PGK-HiBiT entry vector using AgeI/MluI sites.
The following primers were used for cloning HiBiT-ITK; forward: […]
Cell line generation. The stable cell line MV4-11 AURORA−HiBiT was generated as previously described.14 Lentiviral infection was used to generate the stable Jurkat HiBiT cell line.
Lentivirus was produced using plasmids psPAX2, pMD2.G, and HiBiT-ITK plasmid in HEK293 cells. Jurkat cells were infected with filtered virus supernatant and selected after 48 h of infection for the generation of the stable JurkatITK-HiBiT cell line.
HiBiT Measurements. HiBiT assay was performed as described previously. 14 Briefly, MV4-11 and Jurkat HiBiT cells were seeded and treated with compounds for the indicated time. Nano-Glo HiBiT Lytic Detection System (Promega) was used for the assay and luminescence was measured on a Tecan Spark Multiplate reader (Tecan). DC50s were calculated using the dose-response (four parameters) equation in Prism (GraphPad).
(In general: With HiBiT, luminescence reflects the tagged protein that the partner subunit can reach.)

`CC(=O)N[C@H](C(=O)N1C[C@H](O)C[C@H]1C(=O)NCc1ccc(-c2scnc2C)cc1OCCOCCOCCOCCNC(=O)c1cc(Nc2cc(C3CC3)[nH]n2)nc(Nc2ccc(CC#N)cc2)n1)C(C)(C)C` [5-b]: in test [1], the “P.Value (compound/DMSO)” value is given as 0.05637 and the “log2FC (compound/DMSO)” value is recorded as -0.3112.
As to `Cc1ncsc1-c1ccc(CNC(=O)[C@@H]2C[C@@H](O)CN2C(=O)[C@@H](NC(=O)CCOCCOCCOCCN2CCN(c3cc(Nc4cc(C5CC5)[nH]n4)nc(Nc4ccc(CC#N)cc4)n3)CC2)C(C)(C)C)cc1` [4-a], at ITK^HiBiT, the DC50 came to 0.937 µM and the Dmax is not above 71%.
As for `Cc1ncsc1-c1ccc(CNC(=O)[C@@H]2C[C@@H](O)CN2C(=O)[C@@H](NC(=O)CCOCCOCCOCCOCCN2CCN(c3ccc(Nc4ncc(Cl)c(Nc5ccccc5C(N)=O)n4)cc3)CC2)C(C)(C)C)cc1` [6-b], at ITK^HiBiT, the DC50 was determined as 0.042 µM, the Dmax was not above 71% and the “concentration at which a hook effect was observed” value was more than 1 µM.
Turning to `CC(=O)N[C@H](C(=O)N1C[C@H](O)C[C@H]1C(=O)NCc1ccc(-c2scnc2C)cc1OCCOCCOCCOCCOCCC(=O)N1CCN(c2ccc(Nc3ncc(Cl)c(Nc4ccccc4C(N)=O)n3)cc2)CC1)C(C)(C)C` [6-e], in test [1], the “P.Value (compound/DMSO)” value is listed as 0.09776 and the “log2FC (compound/DMSO)” value is listed as 0.2849.

Values taken from publication PMC11851430, “Workflow for E3 Ligase Ligand Validation for PROTAC Development” (ACS Chemical Biology, 2025).
